Data: patent US12660819B2, “Herbicidal derivatives” (SYNGENTA CROP PROTECTION AG, priority 2020, dated 2026)

Experiments:
Assay type in all cases: in vivo
[1] = tested on: Ipomoea hederacea (IPOHE); experiment: Pre-emergence Test (glasshouse, percentage damage to the plant); conditions: 1000 g/ha unless otherwise stated; for percentage damage to the plant, IPOHE (five-point scale): Ipomoea hederacea; for percentage damage to the plant, IPOHE: five-point scale
[2] = tested on: Amaranthus palmeri (AMAPA); experiment: as above; conditions: 1000 g/ha unless otherwise stated, Amaranthus palmeri
Setaria faberi (SETFA) [3] = experiment: as above; conditions: 1000 g/ha unless otherwise stated; for percentage damage to the plant, SETFA (five-point scale): Setaria faberi; for percentage damage to the plant, SETFA: five-point scale
[4] = tested on: Echinochloa crus-galli (ECHCG); experiment: as above; conditions: 1000 g/ha unless otherwise stated; for percentage damage to the plant, ECHCG (five-point scale): Echinochloa crus-galli; for percentage damage to the plant, ECHCG: five-point scale
Zea mays (ZEAMX) [5] = experiment: as above; conditions: 1000 g/ha unless otherwise stated; for percentage damage to the plant, ZEAMX (five-point scale): Zea mays; for percentage damage to the plant, ZEAMX: five-point scale
[6] = tested on: Amaranthus retoflexus (AMARE); experiment: Post-emergence Test (glasshouse, percentage damage to the plant); conditions: 1000 g/ha unless otherwise stated, evaluated after 13 days; for AMARE, percentage damage caused to the plant (five-point scale): post-emergence; for Post-emergence Test AMARE, percentage damage to the plant (five-point scale): post-emergence spray
Method in brief: (§1)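 Seeds are sown in standard soil under controlled glasshouse conditions. The pots are then sprayed at 1000 g/ha, unless otherwise stated, with compound in acetone/water (50:50) containing 0.5% Tween 20. After 13 days further growth, percentage plant damage is scored from 1 (0-20%) to 5 (81-100%).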

[7] = tested on: Amaranthus palmeri (AMAPA); experiment: as above; conditions: post-emergence; 1000 g/ha unless otherwise stated; evaluated after 13 days
Method in brief: as §1

Zea mays (ZEAMX) [8] = experiment: as above; conditions: 1000 g/ha unless otherwise stated, evaluated after 13 days; for ZEAMX, percentage damage caused to the plant (five-point scale): post-emergence; for Post-emergence Test ZEAMX, percentage damage to the plant (five-point scale): post-emergence spray
Method in brief: (§2)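 After sowing in standard soil, pots were kept at 24/16 °C (day/night), 14 h light and 65% humidity. They were sprayed at 1000 g/ha unless otherwise stated, watered twice daily, and assessed for percentage damage at 13 days on a 1–5 scale.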

[9] = tested on: Ipomoea hederacea (IPOHE); experiment: as above; conditions: 1000 g/ha unless otherwise stated, evaluated after 13 days; for IPOHE, percentage damage caused to the plant (five-point scale): post-emergence; for Post-emergence Test IPOHE, percentage damage to the plant (five-point scale): post-emergence spray
Method in brief: as §2

Setaria faberi (SETFA) [10] = experiment: as above; conditions: 1000 g/ha unless otherwise stated, evaluated after 13 days; for SETFA, percentage damage caused to the plant (five-point scale): post-emergence; for Post-emergence Test SETFA, percentage damage to the plant (five-point scale): post-emergence spray
Method in brief: as §2

[11] = tested on: Amaranthus retoflexus (AMARE); experiment: Pre-emergence Test (glasshouse, percentage damage to the plant); conditions: 1000 g/ha unless otherwise stated; for percentage damage to the plant, AMARE (five-point scale): Amaranthus retoflexus; for percentage damage to the plant, AMARE: five-point scale
[12] = tested on: Abutilon theophrasti (ABUTH); experiment: as above; conditions: 1000 g/ha unless otherwise stated, five-point scale
[13] = tested on: Abutilon theophrasti (ABUTH); experiment: Post-emergence Test (glasshouse, percentage damage to the plant); conditions: post-emergence spray, 1000 g/ha unless otherwise stated, evaluated after 13 days
Method in brief: as §1

[14] = tested on: Echinochloa crus-galli (ECHCG); experiment: as above; conditions: post-emergence spray, 1000 g/ha unless otherwise stated, evaluated after 13 days
Method in brief: as §1

SMILES	percentage damage to the plant, IPOHE (five-point scale) [1]	percentage damage to the plant, AMAPA (five-point scale) [2]	percentage damage to the plant, SETFA (five-point scale) (Setaria faberi (SETFA) [3])	percentage damage to the plant, ECHCG (five-point scale) [4]	percentage damage to the plant, ZEAMX (five-point scale) (Zea mays (ZEAMX) [5])	AMARE, percentage damage caused to the plant (five-point scale) [6]	AMAPA, percentage damage caused to the plant (five-point scale) [7]	ZEAMX, percentage damage caused to the plant (five-point scale) (Zea mays (ZEAMX) [8])	IPOHE, percentage damage caused to the plant (five-point scale) [9]	SETFA, percentage damage caused to the plant (five-point scale) (Setaria faberi (SETFA) [10])	percentage damage to the plant, AMARE (five-point scale) [11]	further results
CCN(CC)S(=O)(=O)c1ccc(-c2c(C)n(CC)c(-c3ccc(Cl)c(Cl)c3)c(C(=O)O)c2=O)cc1 [Compound 237, 2-(3,4-dichlorophenyl)-5-[4-(diethylsulfamoyl)phenyl]-1-ethyl-6-methyl-4-oxo-pyridine-3-carboxylic acid]	0	1 (1=0-20%)	1 (1=0-20%)	2 (2=21-40%)	0	1 (1=0-20%)	4 (4=61-80%)	1 (1=0-20%)	2 (2=21-40%)	3 (3=41-60%)	0	
CCn1c(C)c(-c2ccc(S(C)(=O)=O)cc2F)c(=O)c(C(=O)O)c1-c1ccc(Cl)c(Cl)c1 [Compound 239, 2-(3,4-dichlorophenyl)-1-ethyl-5-(2-fluoro-4-methylsulfonyl-phenyl)-6-methyl-4-oxo-pyridine-3-carboxylic acid]	1 (1=0-20%)	1 (1=0-20%)	5 (5=81-100%)	5 (5=81-100%)	0	4 (4=61-80%)	3 (3=41-60%)	2 (2=21-40%)	2 (2=21-40%)	4 (4=61-80%)	1 (1=0-20%)	
CCn1c(C)c(-c2cc(F)ccc2OC)c(=O)c(C(=O)O)c1-c1ccc(Cl)c(Cl)c1 [Compound 235, 2-(3,4-dichlorophenyl)-1-ethyl-5-(5-fluoro-2-methoxy-phenyl)-6-methyl-4-oxo-pyridine-3-carboxylic acid]	0	3 (3=41-60%)	0	0	0	3 (3=41-60%)	4 (4=61-80%)	1 (1=0-20%)	3 (3=41-60%)	2 (2=21-40%)	0	
CCn1c(C)c(-c2cc(F)ccc2C)c(=O)c(C(=O)O)c1-c1ccc(Cl)c(Cl)c1 [Compound 222, 2-(3,4-dichlorophenyl)-1-ethyl-5-(5-fluoro-2-methyl-phenyl)-6-methyl-4-oxo-pyridine-3-carboxylic acid]	1 (1=0-20%)	1 (1=0-20%)	1 (1=0-20%)	1 (1=0-20%)	1 (1=0-20%)	3 (3=41-60%)	5 (5=81-100%)	1 (1=0-20%)	3 (3=41-60%)	3 (3=41-60%)	1 (1=0-20%)	
CCn1c(C)c(-c2ccc(C)cc2F)c(=O)c(C(=O)O)c1-c1ccc(Cl)c(Cl)c1 [Compound 236, 2-(3,4-dichlorophenyl)-1-ethyl-5-(2-fluoro-4-methyl-phenyl)-6-methyl-4-oxo-pyridine-3-carboxylic acid]	4 (4=61-80%)	2 (2=21-40%)	4 (4=61-80%)	3 (3=41-60%)	1 (1=0-20%)	5 (5=81-100%)	5 (5=81-100%)	2 (2=21-40%)	5 (5=81-100%)	2 (2=21-40%)	1 (1=0-20%)	
CCn1c(C)c(-c2cc(C)ccc2C)c(=O)c(C(=O)O)c1-c1ccc(Cl)c(Cl)c1 [Compound 225, 2-(3,4-dichlorophenyl)-5-(2,5-dimethylphenyl)-1-ethyl-6-methyl-4-oxo-pyridine-3-carboxylic acid]	0	0	0	1 (1=0-20%)	0	4 (4=61-80%)	5 (5=81-100%)	1 (1=0-20%)	1 (1=0-20%)	1 (1=0-20%)	0	
CCn1c(C)c(-c2cccc3c2OC(F)(F)O3)c(=O)c(C(=O)O)c1-c1ccc(Cl)c(Cl)c1 [Compound 223, 2-(3,4-dichlorophenyl)-5-(2,2-difluoro-1,3-benzodioxol-4-yl)-1-ethyl-6-methyl-4-oxo-pyridine-3-carboxylic acid]	0	3 (3=41-60%)	3 (3=41-60%)	1 (1=0-20%)	1 (1=0-20%)	5 (5=81-100%)	5 (5=81-100%)	1 (1=0-20%)	1 (1=0-20%)	3 (3=41-60%)	1 (1=0-20%)	
CCn1c(C)c(-c2ccc(Cl)cc2)c(=O)c(C(=O)O)c1-c1ccc(Br)c(F)c1 [Compound 129, 2-(4-bromo-3-fluoro-phenyl)-5-(4-chlorophenyl)-1-ethyl-6-methyl-4-oxo-pyridine-3-carboxylic acid]												percentage damage to the plant, ABUTH [12]: 2 (2=21-40%); percentage damage to the plant, IPOHE [1]: 2 (2=21-40%); percentage damage to the plant, SETFA (Setaria faberi (SETFA) [3]): 5 (5=81-100%); percentage damage to the plant, ECHCG [4]: 2 (2=21-40%); percentage damage to the plant, ZEAMX (Zea mays (ZEAMX) [5]): 1 (1=0-20%); Post-emergence Test ABUTH, percentage damage to the plant (five-point scale) [13]: 3 (3=41-60%); Post-emergence Test AMARE, percentage damage to the plant (five-point scale) [6]: 3 (3=41-60%); Post-emergence Test ZEAMX, percentage damage to the plant (five-point scale) (Zea mays (ZEAMX) [8]): 2 (2=21-40%); Post-emergence Test IPOHE, percentage damage to the plant (five-point scale) [9]: 3 (3=41-60%); Post-emergence Test ECHCG, percentage damage to the plant (five-point scale) [14]: 2 (2=21-40%); Post-emergence Test SETFA, percentage damage to the plant (five-point scale) (Setaria faberi (SETFA) [10]): 3 (3=41-60%); percentage damage to the plant, AMARE [11]: 5 (5=81-100%)
CCn1c(C)c(-c2ccc(C(=O)N(C)C)cc2)c(=O)c(C(=O)O)c1-c1ccc(Cl)c(Cl)c1 [Compound 109, 2-(3,4-dichlorophenyl)-5-[4-(dimethylcarbamoyl)phenyl]-1-ethyl-6-methyl-4-oxo-pyridine-3-carboxylic acid]												percentage damage to the plant, ABUTH [12]: 1 (1=0-20%); percentage damage to the plant, IPOHE [1]: 1 (1=0-20%); percentage damage to the plant, SETFA (Setaria faberi (SETFA) [3]): 4 (4=61-80%); percentage damage to the plant, ECHCG [4]: 1 (1=0-20%); percentage damage to the plant, ZEAMX (Zea mays (ZEAMX) [5]): 1 (1=0-20%); Post-emergence Test ABUTH, percentage damage to the plant (five-point scale) [13]: 3 (3=41-60%); Post-emergence Test AMARE, percentage damage to the plant (five-point scale) [6]: 1 (1=0-20%); Post-emergence Test ZEAMX, percentage damage to the plant (five-point scale) (Zea mays (ZEAMX) [8]): 1 (1=0-20%); Post-emergence Test IPOHE, percentage damage to the plant (five-point scale) [9]: 4 (4=61-80%); Post-emergence Test ECHCG, percentage damage to the plant (five-point scale) [14]: 2 (2=21-40%); Post-emergence Test SETFA, percentage damage to the plant (five-point scale) (Setaria faberi (SETFA) [10]): 3 (3=41-60%); percentage damage to the plant, AMARE [11]: 1 (1=0-20%)
